In data set [1] the test system is HBV. The data set is described as follows: HBV inhibitory activity: HBV DNA in the culture medium of HepG2.2.15 cells by q-PCR. Format: cell-based. The note with it: Hepatitis B virus, HepG2.2.15, 144 h. The method, then:
(§1) HBV replication inhibition by the compounds of this invention as well as cytotoxicity determination was determined in cells infected or transfected with HBV, or cells with stably integrated HBV, such as HepG2.2.15 cells (Sells et al. 1987). The method used herein is as follows.
(§2) The HepG2.2.15 cells were seeded into 96-well plate in 2% FBS (Fetal bovine serum) culture medium at the density of 40,000 cells/well and 5,000 cells/well for HBV inhibitory activity and cytotoxicity determination, respectively. After seeding, the cell plates were incubated at 37° C., 5% CO2 overnight. The next day, medium containing compounds were added to treat the cells for 6 days with medium refreshed once in the middle of the treatment. Eight dose points with 3 folds dilution of each compound were adopted and the highest concentration of the compounds was 10 μM and 100 μM for HBV inhibitory activity and cytotoxicity determination, respectively.
The HBV DAN change in the cell culture medium induced by the compounds was measured by q-PCR (quantitative polymerase chain reaction) method. The HBV DNA in the culture medium was extracted using QIAamp 96 DNA Blood Kit according to the manual and then quantified by q-PCR using the primers and probe in the table below: […]
(§3) EC50 and CC50 values are calculated by the GraphPad Prism software and are averages where multiple measurements were made. EC50 values for the other exemplified compounds were either not measured or higher than 1 μM.

Data set [2] in a line: Cytotoxicity determination in HepG2.2.15 cells (CCK-8). It is filed as cell-based. The settings on record: human, 6 days of compound treatment, CCK-8, highest concentration 100 μM. The method, then: as §1, §2
After 6 days of compounds treatment, 20 μl CCK-8 (Cell Counting Kit-8 (Tianjin Biolite company)) reagents were added to each well of cytotoxicity assay plates, the plate was incubated at 37° C., 5% CO2 for 2.5 hours and the absorbance at 450 nm wavelength was measured, at the same time the absorbance at 630 nm wavelength was read as reference.
as §3

Where [3] appears, read: HepG2.2.15 cells, 6 days of compound treatment, HBV DNA in culture medium by q-PCR, highest concentration 10 μM, read-out: EC50.

The EC50 is the concentration needed to bring the measured effect to its halfway point. As a reminder, the CC50 is the concentration giving 50% cytotoxicity. A high value points to better tolerance by the cells.

Each structure is given as a SMILES string. Like-named read-outs stand apart in the source and are kept apart here.

For the molecule `CCOC(=O)C1=C(C2CCN(S(=O)(=O)[C@H]3C[C@H](C(=O)O)C3)CC2)NC(c2nccs2)=NC1c1ccc(F)cc1Br` (stereo partly drawn) [Compound 333B, (trans)-3-((4-(6-(2-bromo-4-fluorophenyl)-5-(ethoxycarbonyl)-2-(thiazol-2-yl)-3,6-dihydropyrimidin-4-yl)piperidin-1-yl)sulfonyl)cyclobutane-1-carboxylic Acid], the concentration for a half-maximal effect (EC50) in data set [1] (setting [3]) was found to be 35 nM. This molecule also registered a CC50 at 6 days in data set [2] of 33100 nM.
In the same order, the values of `COC(=O)C1=C(C2CCN(S(=O)(=O)[C@H]3CC[C@@H](C(=O)O)CC3)CC2)NC(c2nccs2)=NC1c1ccc(F)cc1Cl` (relative stereo) [Compound 313A, (cis)-4-((4-(6-(2-Chloro-4-fluorophenyl)-5-(methoxycarbonyl)-2-(thiazol-2-yl)-3,6-dihydropyrimidin-4-yl)piperidin-1-yl)sulfonyl)-cyclohexanecarboxylic Acid] are 58 nM and 35000 nM.
In the case of `COC(=O)C1=C(C2CCN(S(C)(=O)=O)CC2)NC(c2nccs2)=NC1c1ccc(F)c(F)c1Cl` (single isomer, unassigned) [Compound 59B, Methyl 4-(2-chloro-3,4-difluorophenyl)-6-(1-(methylsulfonyl)-piperidin-4-yl)-2-(thiazol-2-yl)-1,4-dihydropyrimidine-5-carboxylate], the EC50 in data set [1] (setting [3]) was found to be 388 nM. The same molecule had a CC50 at 6 days in data set [2] of 27900 nM.
Consider `COC(=O)C1=C(C2CCN(S(=O)(=O)CCOCCO)CC2)NC(c2nccs2)=NC1c1ccc(F)cc1Cl` (stereo not drawn) [Compound 484, Methyl 4-(2-chloro-4-fluorophenyl)-6-(1-((2-(2-hydroxyethoxy)ethyl)sulfonyl)piperidin-4-yl)-2-(thiazol-2-yl)-1,4-dihydropyrimidine-5-carboxylate], for which the EC50 in data set [1] was found to be 5 nM. In addition, the midpoint of cytotoxicity in data set [2], the CC50 at 6 days, lay at 47000 nM.
Turning to `COC(=O)C1=C([C@H]2C[C@@H](NS(C)(=O)=O)C2)NC(c2nccs2)=NC1c1ccc(F)cc1Cl` (single isomer, unassigned) [Compound 206D, (cis)-Methyl 4-(2-chloro-4-fluorophenyl)-6-(3-(methylsulfonamido)cyclobutyl)-2-(thiazol-2-yl)-1,4-dihydropyrimidine-5-carboxylate], in data set [1] (setting [3]), the EC50 was 389 nM. In data set [2], the CC50 at 6 days was 39200 nM.
In the same order, the values of `COC(=O)C1=C(C2CCN(S(C)(=O)=O)CC2)NC(c2nccs2)=NC1c1cccc(F)c1Cl` (single isomer, unassigned) [Compound 112B, Methyl 4-(2-chloro-3-fluorophenyl)-6-(1-(methylsulfonyl)-piperidin-4-yl)-2-(thiazol-2-yl)-1,4-dihydropyrimidine-5-carboxylate] are 950 nM and 8200 nM.
The corresponding values for `COC(=O)C1=C(C2CCN(C)C2)NC(c2nccs2)=NC1c1ccc(F)cc1Cl` (single isomer, unassigned) [Compound 207C, methyl 4-(2-chloro-4-fluorophenyl)-6-(−1-methylpyrrolidin-3-yl)-2-(thiazol-2-yl)-1,4-dihydropyrimidine-5-carboxylate] are 753 nM and over 20000 nM.
In the same order, the values of `CCOC(=O)C1=C([C@H]2CC[C@H](C(N)=O)CC2)NC(c2nccs2)=NC1c1ccc(F)cc1Cl` (stereo partly drawn) [Compound 163, (trans)-ethyl 6-(−4-carbamoylcyclohexyl)-4-(2-chloro-4-fluorophenyl)-2-(thiazol-2-yl)-1,4-dihydropyrimidine-5-carboxylate] are 65 nM and 23900 nM.
As for `COC(=O)C1=C([C@H]2CC[C@H](S(=O)(=O)N3CCCC3)CC2)NC(c2nccs2)=NC1c1ccc(F)c(F)c1Cl` (single isomer, unassigned) [Compound 169A, (trans)-Methyl 4-(2-chloro-3,4-difluorophenyl)-6-(4-(pyrrolidin-1-ylsulfonyl)cyclohexyl)-2-(thiazol-2-yl)-1,4-dihydropyrimidine-5-carboxylate], the EC50 in data set [1] (setting [3]) worked out at 56 nM. In data set [2], this molecule returned a CC50 at 6 days of over 100000 nM.

(Values after patent US11639350B2, “Heteroaryldihydropyrimidine derivatives and methods of treating hepatitis B infections” (Janssen Pharmaceutica NV, priority 2018, dated 2023).)
